# Results taken from PubChem BioAssay AID1963863 (Molecular Pharmacology Branch, DTP, NCI, 2024).
# System: 931267-113-T-J1-PDC KRAS spheroid with HUVEC/MSC, viability
# Test: Anticancer human tumor 931267-113-T-J1-PDC patient-derived colon adenocarcinoma cell line growth inhibition [KRAS2]
# Settings: for IC50: curve of first compound; for viability, T/C: stronger effect = lower value
# Method in brief: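 KRAS-mutant tumor cells were grown as spheroids with HUVEC endothelial cells and human MSCs as stroma. Targeted agents were tested alone and with KRAS pathway inhibitors. Doses started at or near clinical Cmax, or 10 microM, descending half-log.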
# [1] = second compound 0.0316 µM, first compound 0.0316 µM
# [2] = second compound 0.0316 µM, first compound 0.1 µM
# [3] = second compound 0.0316 µM, first compound 0.316 µM
# [4] = second compound 0.0316 µM, first compound 1 µM
# [5] = second compound 0.0316 µM, first compound 3.16 µM
# [6] = second compound 0.0316 µM, first compound 10 µM
# [7] = second compound 0.1 µM, first compound 0.0316 µM
# [8] = second compound 0.1 µM, first compound 0.1 µM
# [9] = second compound 0.1 µM, first compound 0.316 µM
# [10] = second compound 0.1 µM, first compound 1 µM
# [11] = second compound 0.1 µM, first compound 3.16 µM
# [12] = second compound 0.1 µM, first compound 10 µM
# [13] = second compound 0.316 µM, first compound 0.0316 µM
# [14] = second compound 0.316 µM, first compound 0.1 µM
# [15] = second compound 0.316 µM, first compound 0.316 µM
# [16] = second compound 0.316 µM, first compound 1 µM
# [17] = second compound 0.316 µM, first compound 3.16 µM
# [18] = second compound 0.316 µM, first compound 10 µM
# [19] = second compound 1 µM, first compound 0.0316 µM
# [20] = second compound 1 µM, first compound 0.1 µM
# [21] = second compound 1 µM, first compound 0.316 µM
# [22] = second compound 1 µM, first compound 1 µM
# [23] = second compound 1 µM, first compound 3.16 µM
# [24] = second compound 1 µM, first compound 10 µM
# [25] = second compound 3.16 µM, first compound 0.0316 µM
# [26] = second compound 3.16 µM, first compound 0.1 µM
# [27] = second compound 3.16 µM, first compound 0.316 µM
# [28] = second compound 3.16 µM, first compound 1 µM
# [29] = second compound 3.16 µM, first compound 3.16 µM
# [30] = second compound 3.16 µM, first compound 10 µM
# 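Note: compound exposure lasted 7 days before the readout.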
# 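Throughout, for viability, T/C: 100% = DMSO vehicle control viability.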
Structure (SMILES),IC50 (second compound 0.0316 µM) [nM],IC50 (second compound 0.1 µM) [nM],IC50 (second compound 0.316 µM) [nM],IC50 (second compound 1 µM) [nM],IC50 (second compound 3.16 µM) [nM],"viability, T/C [1] [%]","viability, T/C [2] [%]","viability, T/C [3] [%]","viability, T/C [4] [%]","viability, T/C [5] [%]","viability, T/C [7] [%]","viability, T/C [8] [%]","viability, T/C [9] [%]","viability, T/C [10] [%]","viability, T/C [11] [%]","viability, T/C [13] [%]","viability, T/C [14] [%]","viability, T/C [15] [%]","viability, T/C [16] [%]","viability, T/C [17] [%]",further results
CC(C)NCC(C(=O)N1CCN(c2ncnc3c2C(C)CC3O)CC1)c1ccc(Cl)cc1 (stereo not given) + C=CC(=O)N1CCN(c2nc(OCC3CCCN3C)nc3c2CCN(c2cccc4cccc(C)c24)C3)CC1CC#N,> 10000,6280,5100,1810,< 31.6,111,86,72.4,79.8,64.3,96.8,86.4,83.1,101,62.1,100,89.6,95.4,64.7,73,"viability, T/C [6]: 50%; viability, T/C [12]: 41.8%; viability, T/C [18]: 30.4%; viability, T/C [19]: 79.4%; viability, T/C [20]: 83.1%; viability, T/C [21]: 64.5%; viability, T/C [22]: 60.1%; viability, T/C [23]: 42.2%; viability, T/C [24]: 18.4%; viability, T/C [25]: 1.12%; viability, T/C [26]: 0.47%; viability, T/C [27]: 0.29%; viability, T/C [28]: 0.37%; viability, T/C [29]: 0.61%; viability, T/C [30]: 0.46%"
CC1(C)CCC(CN2CCN(c3ccc(C(=O)NS(=O)(=O)c4ccc(NCC5CCOCC5)c([N+](=O)[O-])c4)c(Oc4cnc5[nH]ccc5c4)c3)CC2)=C(c2ccc(Cl)cc2)C1 + C=CC(=O)N1CCN(c2nc(OCC3CCCN3C)nc3c2CCN(c2cccc4cccc(C)c24)C3)CC1CC#N,1960,2360,1900,1550,< 31.6,107,93.6,102,83,26.2,110,120,97.5,106,31,114,94.8,89.3,94.6,14.8,"viability, T/C [6]: 0.37%; viability, T/C [12]: 0.82%; viability, T/C [18]: 0.28%; viability, T/C [19]: 102%; viability, T/C [20]: 84.3%; viability, T/C [21]: 94.5%; viability, T/C [22]: 78%; viability, T/C [23]: 4.65%; viability, T/C [24]: 0.18%; viability, T/C [25]: 0.38%; viability, T/C [26]: 0.51%; viability, T/C [27]: 0.75%; viability, T/C [28]: 0.2%; viability, T/C [29]: 0.34%; viability, T/C [30]: 0.26%"
CC1COCCN1c1cc(-c2ccnn2C)c2ccnc(-c3ccn[nH]3)c2n1 (stereo not given) + C=CC(=O)N1CCN(c2nc(OCC3CCCN3C)nc3c2CCN(c2cccc4cccc(C)c24)C3)CC1CC#N,44.1,45.4,39.8,25.6,< 10,59,27.8,19.2,18.1,18,62.8,22.2,18.6,21.6,21.5,56.4,24.7,16.8,18.9,24.5,"viability, T/C (second compound 0.0316 µM, first compound 0.01 µM): 90.9%; viability, T/C (second compound 0.1 µM, first compound 0.01 µM): 122%; viability, T/C (second compound 0.316 µM, first compound 0.01 µM): 75.6%; viability, T/C (second compound 1 µM, first compound 0.01 µM): 88.9%; viability, T/C [19]: 41.3%; viability, T/C [20]: 12%; viability, T/C [21]: 12.8%; viability, T/C [22]: 21.3%; viability, T/C [23]: 24.1%; viability, T/C (second compound 3.16 µM, first compound 0.01 µM): 0.25%; viability, T/C [25]: 0.19%; viability, T/C [26]: 0.38%; viability, T/C [27]: 0.14%; viability, T/C [28]: 0.14%; viability, T/C [29]: 0.94%"
